From patent publication US9856294B2, “Cyclodecapeptide compounds for use as drugs” (Commissariat A L'Energie Atomique Et Aux Energies …, priority 2010, dated 2018)
Read-outs that look alike come from different tables or passages of the source.

Key:
[1] = log Kapp(Hg(II)) - log Kapp(Zn(II)), pH 7.4, 298 K
From the text: (§1) The selectivity between two metals M/M′ corresponds to the selectivity of the ligand for the metal M compared with that for the metal M′, this selectivity being equal to: log(Kapp(M)/Kapp(M′))=log Kapp(M)−log Kapp(M′)

[2] = pH 7.4, 298 K
From the text: These treatments must be followed for life, and must never be interrupted. They are based on chelating drugs which reduce the absorption of copper in the body, or which increase the excretion of this metal. The treatments must be subject to periodic monitoring, so as to detect the appearance of undesirable side effects.
as §1

[3] = log Kapp(Cu(II)) - log Kapp(Zn(II))

Row | Compound | Selectivity Hg/Zn [1] | Selectivity Cu/Zn [2, 3] | Selectivity Cu/Zn ([2]; log Kapp(Cu(I)) - log Kapp(Zn(II)))
1 | OCC(S)CS (stereo not shown) [BAL, 2,3-dimercaptopropanol] | 12.2 | – | –
2 | O=C(O)CN(CCN(CC(=O)O)CC(=O)O)CC(=O)O [EDTA, ethylenediaminetetraacetic acid] | 5 | 2.3 | –
3 | CC(C)(S)[C@@H](N)C(=O)O [Pen, D-penicillamine] | 9.1 | – | 2.5
4 | NCCNCCNCCN [Trien, triethylenetetramine] | 12.7 | 8.1 | –
